Data from patent US10676452B2, “Compound for the prophylaxis or treatment of organ damage” (Sulfateq B.V., priority 2015, dated 2020).
Entries after “also recorded” stand apart in the source; their conditions may differ.

Tests used:
[1] = system: mouse aortic rings; test: Organ bath experiments with the isolated aorta of treated mice (ACh relaxation after PE precontraction); type: in vivo; settings: for max. relaxation to ACh (remaining % of PE preconstriction): aortic rings
Protocol: Freshly isolated thoracic aortic rings (1.5-2 mm in length) were mounted on 200-μm stainless wires in individual myograph baths (Danish Myo Technology, Aarhus, Denmark). Briefly, baths containing 6 ml Krebs solution were warmed to 37° C. and preequilibrated and continuously aerated with 95% O2-5% CO2 to maintain pH at 7.4. The length of the aortic strips was assessed by microscopy. Aortic rings were equilibrated for 40 min until they were at a steady baseline. Rings were then primed and checked for viability by two consecutive stimulations with KCl (60 mM) followed by washings and renewed stabilization to obtain reproducible contractile responses.
Contraction responses were measured as cumulative concentration-response curves to phenylephrine (PE; 10 nM-100 μM) followed by a single concentration of KCl (90 mM). Endothelium-dependent relaxation was assessed by obtaining concentration-response curves to ACh (10 nM-300 μM) in rings precontracted with PE (1 μM) followed by stimulation with a high concentration of the NO donor sodium nitroprusside (SNP; 0.1 mM) to assess maximal endothelium-independent dilation.
To study the role of the endothelium in vasoconstrictor effects, rings were denuded by removing the endothelial cell layer by rubbing the luminal side of the vessel with a moistened wire. To examine the contribution of different EDRFs in modulating vasoconstrictor responses and mediating endothelium-dependent relaxation, inhibitors of PG and NO synthesis were used. To this end, PG components were assessed by preincubating rings (20 min.) with the nonspecific cyclooxygenase inhibitor indomethacin (10 μM). The NO component was examined by subsequent incubation with both NO synthesis inhibitor NG-monomethyl-L-arginine (L-NMMA; 1 μM) and indomethacin. The remaining ACh-mediated relaxation was attributed to an unidentified EDHF.
Contractions to KCl and PE are given in milliNewtons. Relaxation responses to ACh and SNP are expressed as percentages of the preconstriction with PE. In addition to that, the area under each individual curve (AUC; in arbitrary units) was determined for ACh-induced relaxation (SigmaPlot version 10.0, Systat Software, San Jose, Calif.). The AUC was used to present total endothelium-dependent relaxation and for the subsequent analysis of differences in ACh-mediated relaxation with and without inhibitors present to estimate the contribution of the different EDRFs, i.e., PGs for the part sensitive to cycloxygenase inhibition with indomethacin, NO for the part sensitive to NOS inhibition with L-NMMA, and EDHF by means of exclusion of PG and NO (34).

[2] = system: db/db mice; test: Urinary albumin excretion and albumin/creatinine ratio; type: in vivo, mouse
Protocol: (§1) Male db/db mice (n=16) and lean heterozygous control animals (n=16) were purchased from Harlan UK (strain JAX000642). All mice were housed individually. Water and food were given ad-libitum. Four groups of mice were investigated: • 1) db/db+vehicle (diabetic control) • 2) db/db+Sul121 (treated diabetic group) • 3) wt+vehicle (non-diabetic control) • 4) wt+Sul121 (to study effect of drug only) Drug and vehicle were administered by implantation of osmotic minipumps at the age of 10 (t=0) and 14 weeks (t=4). Metabolic cages and blood pressure measurements were performed every two weeks. Blood samples could not be obtained by cheek puncture, therefore blood was collected from the retro orbital plexus at the age of 10 (t=0) and 12 weeks (t=2). At the age of 18 weeks (t=8) all animals were terminated and blood was collected by cardiac puncture. Urinary Measurements
(§2) Urinary glucose concentrations were measured by the glucose oxidase method with a specific electrode from 24-h urine collections after the samples were stored in −20° C. The urinary creatinine concentration was measured by standard laboratory methods (Jaffe method without deproteinization, DiaSys Diagnostic Systems, Holzheim, Germany). The median values of the 24-h urine collections and of the albumin-to-creatinine ratio were calculated. In addition, mouse albumin levels in urine were determined manually using a mouse albumin Elisa kit (Abcam, Cambridge, UK). Urinary hydrogen peroxide levels were determined using an Amplex Red H2O2 assay kit (Life technologies, Leusden, the Netherlands).
To test whether SUL 121 treatment could reduce renal damage, albumin leakage into the urine was measured at all time points for diabetic animals. Total albumin excretion per day (AER) was calculated by multiplying urinary albumin concentration with daily urinary output (FIG. 3A).

[3] = system: db/db mice; test: Plasma hydrogen peroxide (ROS production in diabetes); type: in vivo, mouse; settings: diabetic mice
Protocol: as §2
Enhanced reactive oxygen species (ROS) production is a well-established phenomenon in diabetes. To study the effects of SUL121 treatment on ROS production, hydrogen peroxide, a stable metabolite of ROS, was measured in plasma (FIG. 6). SUL 121 treatment normalized H2O2 levels in plasma.

[4] = system: mouse renal mesangial cells; test: In-vitro model of diabetes: intracellular ROS under high glucose and insulin; type: cell-based
Text: To further explore the mechanisms through which SUL 121 mediates renal protection in diabetes, an in-vitro model of diabetes was employed. For this, mouse renal mesangial cells were exposed to conditions simulating type 2 diabetes (high glucose and insulin). Exposure to high glucose/insulin increased intracellular ROS levels by approximately 70% (FIG. 7).

[5] = system: db/db mice; test: Renal histology: PAS staining, focal glomerulosclerosis (FGS) score; type: in vivo, mouse; settings: diabetic mice
Text: Four-micrometer-thick formalin fixed sections were deparaffinized and stained for periodic acid-Schiff (PAS) for quantification of focal glomerulosclerosis (FGS) and tubular injury. FGS was semiquantitatively scored in a blinded fashion by determining the level of mesangial expansion and focal adhesion in each quadrant in a glomerulus and expressed on a scale from 0 to 4. If 25% of the glomerulus was affected, it was scored as 1, 50% as 2, 75% as 3, and 100% as 4. In total, 50 glomeruli per kidney were analyzed, and the total FGS score was calculated by multiplying the score by the percentage of glomeruli with the same FGS score. Thus the total FGS score ranged from 0 to 200.

[6] = system: db/db mice; test: Metabolic data (body weight, water intake, urine output, non-fasting blood glucose) in db/db mouse Type 2 diabetes model; type: in vivo
Text: Given its effectiveness in the model of renal ischemia and reperfusion, it was hypothesized that compound SUL 121 will also protect the kidney in an experimental model of obesity induced Type 2 diabetes (T2DM). Therefore, the effects of SUL121 on the development of albuminuria and renal damage in the mouse Type 2 diabetes model was studied. For the study, the db/db mouse model was employed. […] Diabetes starts at the age of 6-8 weeks and adequate levels of kidney damage and albuminuria can be observed at the age of 18 weeks.
To study the effects of SUL121 on the development of diabetes, treatment with SUL121 started from the age of 10 weeks until the age of 18 weeks. In addition, to study the effects of SUL 121 on healthy animals, control mice were treated similarly. A non-treated control group was included in the study, to serve as healthy untreated control. Drug and vehicle were administered by implantation of osmotic minipumps at the age of 10 and 14 weeks.
(§3) Cell culture grade DMSO was obtained from Sigma-Aldrich (Zwijndrecht, the Netherlands). 0.9% sterile saline solutions were from Baxter (Utrecht, the Netherlands). (6-hydroxy-2,5,7,8-tetramethylchroman-2-yl)(piperazin-1-yl)methanone (SUL121) was supplied by Sulfateq BV, Groningen, the Netherlands supplied in a formulation of 500 mM in 100% DMSO corresponding to 177 g/l. Osmotic minipumps (Alzet, USA) are resistant to DMSO concentrations≤50%. Therefore, the solubility of SUL121 was tested in 50% DMSO in saline solution. SUL121 was completely soluble in 50% DMSO up to a concentration of 12.6 g/1. Alzet model 2004 pumps were loaded with 200 μl of 12.6 g/1 SUL121 solution or with 200 ul 50% DMSO solution (vehicle). According to pump specifications 6 μl of SUL121 was administered per day, resulting in a daily dose of 2.2 mg/kg/day for a 35 gram mouse.
as §1, §2

[7] = system: rat kidney; settings: blood flow stopped and restored; cited from earlier work
[8] = system: db/db mice; test: Arterial blood pressure by tail-cuff method; type: in vivo, mouse
Protocol: as §1
Arterial blood pressure was measured in anaesthetized mice (2% isoflurane) by means of the tail-cuff method (PS-200A; Riken-Kaihatsu; Tokyo, Japan). For each animal, blood pressure values represent the mean of three to ten recordings obtained in a single session.

[9] = Solubility of SUL121 in 50% DMSO in saline solution; type: physicochemical; settings: aqueous with cosolvent or surfactant or cyclodextrin, kinetic from dmso stock, read-out: solubility in 50% DMSO (completely soluble up to)
Protocol: as §3

[10] = system: db/db mice; test: Organ (kidney) weights at termination; type: in vivo, mouse; settings: diabetic mice, after 8 weeks of treatment
Protocol: as §1
After 8 weeks of treatment, mice were terminated and organ weights were measured (FIG. 2). […] SUL 121 treatment normalized kidney weights to non-diabetic control values.

Cc1c(C)c2c(c(C)c1O)CCC(C)(C(=O)N1CCNCC1)O2 (stereo not shown) [SUL121, (6-hydroxy-2,5,7,8-tetramethylchroman-2-yl)(piperazin-1-yl)methanone]
effect on NO and prostaglandin components of relaxation ([1]; diabetic animals): non-significant (p=0.06) increase | effect on EDHF component of total relaxation ([1]; diabetic animals, with L-NMMA and indomethacin): significantly increasing | effect on endothelium mediated relaxation ([1]; diabetic mice): restores | max. relaxation to ACh (remaining % of PE preconstriction) ([1]; treated diabetic group): 11.3±2.3% | max. relaxation to ACh (remaining % of PE preconstriction) ([1]; treated non-diabetic controls): 9.2±1.6% | effect on total albumin excretion per day (AER) ([2]; diabetic animals, weeks 6 and 8): prevented the progression | albumin/creatinine ratio (ACR) ([2]; diabetic mice, week 6): 534 ± 79 µg/mg | albumin/creatinine ratio (ACR) ([2]; diabetic mice, week 8 (not statistically significant vs diabetic control)): 866 ± 91 µg/mg | effect on AER ([2]; non-diabetic animals): did not affect | total albumin excretion per day (AER) ([2]; non-diabetic animals, week 8): 31.3 ± 4.6 µg/day | albumin/creatinine ratio (ACR) ([2]; wild type animals, week 8): 55 ± 6 µg/mg | effect on plasma H2O2 levels [3]: normalized | effect on high glucose/insulin induced increase of intracellular ROS ([4]; cells pretreated, high glucose and insulin): substantially inhibited; also recorded: normalized | effect on intracellular ROS production, compound alone ([4]; without high glucose/insulin): did not affect | effect on focal glomerular sclerosis (FGS) scores [5]: significantly reduced | effect on focal glomerular sclerosis (FGS) scores ([5]; listed as SUL 121): significantly lowered | effect on urine output and water intake ([6]; all time points other than week 8): did not significantly affect | effect on blood glucose levels ([6]; diabetic db/db mice): did not affect | non-fasting blood glucose level ([6]; diabetic db/db mice, end of the experiment): 35.3 ± 1.1 mM | non-fasting blood glucose level ([6]; diabetic db/db mice, start of the experiment): 27.2 ± 1.3 mM | urine output ([6]; diabetic db/db mice, week 8): 11.2 ± 3.8 g | water intake ([6]; diabetic db/db mice, week 8): 10.9 ± 3.9 g | reduction of ischemia and reperfusion damage [7]: very effective | effect on blood pressure ([8]; diabetic mice): did not affect | effect on blood pressure ([8]; non-diabetic wild type mice, week 2): lowered | effect on blood pressure ([8]; week 6): did not affect | solubility [9]: ≥ 12.6 mg/mL | effect on kidney weights (kidney hypertrophy) [10]: normalized
